In patent publication US20210299044A1, “SYSTEMS AND METHODS FOR DELIVERY OF DRUGS AND OTHER SUBSTANCES COMPRISING DEEP EUTECTIC SOLVENTS” (Novilla Pharmaceuticals, Inc., priority 2018, published 2021):

Key:
[1] = values stated in description, no method given; cited from earlier work
[2] = Hydrolysis of aspirin in choline chloride/urea deep eutectic solvent, determined using HPLC; type: physicochemical
Experimental: In this example, an aspirin formulation was prepared using choline chloride and urea. In this example, choline chloride was heated in an oven at 65° C. for 10 hours. Then, 1 part choline chloride (by volume) was added to 2 parts urea in a beaker. The beaker was sealed with parafilm and the choline chloride and urea allowed to mix to form a deep eutectic solvent (DES). Next, the mixture was passed through a 4A 8-12 mesh molecular sieve, and stirred overnight, to form anhydrous DES.
50 mg/ml of aspirin was then added to the DES. […] The hydrolysis was determined using HPLC.
It is believed that heating the choline chloride removes water.

| Compound | pKa [1] | aspirin found to have hydrolyzed ([2]; 50 mg/ml aspirin in anhydrous DES (1 part choline chloride : 2 parts urea by volume), choline chloride heated at 65° C. for 10 hours, molecular sieve, HPLC) [%] | aspirin found to hydrolyze ([2]; comparison: choline chloride and urea mixed without heating the choline chloride, same procedure otherwise) |
| --- | --- | --- | --- |
| CN(C)CCc1c[nH]c2ccc(CS(=O)(=O)N3CCCC3)cc12 [almotriptan] | 8.77 | – | – |
| CC(=O)Oc1ccccc1C(=O)O [aspirin, acetylsalicylic acid] | – | 1 | over 8% |
| CN[C@@H]1CCc2[nH]c3ccc(C(N)=O)cc3c2C1 [frovatriptan] | 17.27 | – | – |
